Results taken from article PMC4965148 (PLoS ONE, 2016).
Where “and” joins values, the source holds several entries; their conditions need not be identical. Identical values can stand only once. Like-named read-outs stand apart in the source and are kept apart here.

How the values were obtained:
[1] = parameters: method as in PMID 21337354; settings: rodents; cited from earlier work
[2] = system: C57Bl/6 mice; experiment: Mouse 24 h novel object recognition; type: in vivo
Description: The procedure followed a 3 day protocol. On day 1 (habituation) individual mice were habituated to the testing chamber (a white PVC box 48 cm long x 38 cm wide x 20 cm high with brown linoleum flooring) for 15 min then returned to their home cage. On day 2 (training) individual mice were returned to the testing chamber containing 2 identical objects and allowed to explore. The training session lasted for up to 15 min or until the mouse explored the objects for a total of 60 s. A maximal trial duration of 15 min was used to accommodate mice that are slower to initiate exploration. On day 3 (testing) individual mice were returned to the testing chamber 24 h later containing 1 familiar object encountered in the previous training session and one novel object. The testing session lasted up to 10 min or until the mouse explored the objects for a total of 60 s. The objects used for these studies were made of duplex legos approximately 3 inches high x 1 inch wide; one object was a multicolored rectangle and the second object was a solid color rectangle with a short arm attached. The location of the objects was counterbalanced between animals but was consistent within animals so that only the object itself was novel on the test session. The familiar object used during the test session was the same object used during training and all objects were thoroughly cleaned between sessions and between subjects. Animal behavior was video recorded during both training and testing and the amount of time spent exploring the objects determined using Cleversys software. Object exploration was only scored when the animal’s nose was within 1 cm of the object. […] The vehicle was chosen for sc dosing to ensure that BMS-933043 was dosed as a solution and not a suspension. […] For each subject the % discrimination index (DI) was calculated for both the training and test session as follows: %DI training = (time exploring object 1—time exploring object 2)/(total time exploring object 1 + object 2) X 100; %DI testing = (time exploring novel object—time exploring familiar object)/(total time exploring novel + familiar object) X 100.

[3] = biological target: Rat Brain α7 nAChR (Rattus norvegicus, UniProt Q05941); experiment: [3H]-A-585539 filtration binding
Sequence of Rat Brain α7 nAChR (Q05941 23-502): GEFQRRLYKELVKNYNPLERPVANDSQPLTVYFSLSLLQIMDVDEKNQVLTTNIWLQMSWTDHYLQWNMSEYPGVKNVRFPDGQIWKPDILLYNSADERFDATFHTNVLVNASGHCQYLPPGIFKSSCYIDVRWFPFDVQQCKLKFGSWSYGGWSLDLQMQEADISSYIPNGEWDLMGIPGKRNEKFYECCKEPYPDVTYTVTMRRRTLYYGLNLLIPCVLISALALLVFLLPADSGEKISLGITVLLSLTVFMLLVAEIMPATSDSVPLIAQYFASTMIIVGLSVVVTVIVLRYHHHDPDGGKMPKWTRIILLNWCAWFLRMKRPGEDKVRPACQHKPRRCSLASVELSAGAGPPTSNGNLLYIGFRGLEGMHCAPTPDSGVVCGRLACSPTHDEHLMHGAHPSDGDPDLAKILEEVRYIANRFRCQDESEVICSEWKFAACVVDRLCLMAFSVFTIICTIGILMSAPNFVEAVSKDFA

[4] = biological target: T1, HEK293/rat α7 nAChR cells (Rattus norvegicus, UniProt Q05941); experiment: Whole cell voltage clamp electrophysiology; type: cell-based; settings: n = 6
T1 construct: expressed in transfected cells
T1 sequence (Q05941 23-502): as above
Description: Whole-cell voltage clamp studies were conducted on HEK293/rat α7 or HEK293/human α7 nAChR cells. […] Atropine (1 μM) was included in the bathing solution. […] Cells were voltage clamped at a holding potential of -90 mV. Using the Dynaflow microfluidic perfusion system (Cellectricon; flow 26 μl/min) responses to a 300 ms application of ACh or α7 nAChR agonists were measured. Currents were filtered at 2 kHz and sampled at 10 kHz using an EPC-9 amplifier and HEKA Pulse/Patchmaster software. […] The peak current amplitude and net charge crossing the membrane (i.e. the area under the current response curve) induced by agonist application were measured using Clampfit (pClamp Suite) and normalized to the maximal response induced by ACh (3 mM ACh for peak current amplitude and 300 μM ACh for net charge).

[5] = biological target: T2, HEK293/Human 5-HT3A (Homo sapiens, UniProt P46098); experiment: Ca2+ flux (FLIPR) 5-HT3A antagonist assay; type: cell-based
T2 construct: expressed in transfected cells; host or cells: HEK293 (made by Bristol-Myers Squibb)
T2 sequence (P46098 24-478): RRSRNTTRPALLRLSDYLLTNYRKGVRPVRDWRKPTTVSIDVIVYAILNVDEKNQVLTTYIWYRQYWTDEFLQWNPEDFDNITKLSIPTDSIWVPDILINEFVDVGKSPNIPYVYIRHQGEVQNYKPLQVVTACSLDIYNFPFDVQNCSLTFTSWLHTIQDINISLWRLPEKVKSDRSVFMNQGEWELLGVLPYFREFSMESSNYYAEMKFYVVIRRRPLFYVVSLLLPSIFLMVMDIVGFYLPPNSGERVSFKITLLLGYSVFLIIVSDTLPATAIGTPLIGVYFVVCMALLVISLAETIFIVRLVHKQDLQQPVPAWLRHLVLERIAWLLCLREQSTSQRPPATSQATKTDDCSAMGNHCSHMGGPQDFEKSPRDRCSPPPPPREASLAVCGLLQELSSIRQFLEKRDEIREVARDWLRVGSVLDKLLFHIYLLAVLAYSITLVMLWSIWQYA
Description: Functional activity was examined using Ca^2+-sensitive, dye-based, microfluorometric assays read on the FLIPR Tetra plate reader platform (Molecular Devices, CA, USA). Cells were plated in 384-well black, clear-bottomed Greiner poly-D-lysine coated plates at a density of ~25 K cells/well and incubated at 29°C for 48 h. Prior to assay, media contents were removed and cells incubated in assay buffer containing 5μM final Fluo-4 dye for 90 min. For nAChR assays, the dye-loading buffer was HBSS (#14175 Life Technologies) supplemented with 20 mM HEPES, 0.5 mM CaCl2, 1 mM MgCl2 and 10 μM atropine (final concentration). Test compounds were solubilized in DMSO and serially diluted in NUNC 384-well plates prior to addition of assay buffer (5.3 mM KCl + 140 mM NaCl + 20 mM Hepes + 25 mM CaCl2 + 1 mM MgCl2 + 10 μM atropine final concentration). Compounds diluted in assay buffer were added to the assay plate by the FLIPR and read for approximately 2 min. […] For 5-HT3A antagonist studies, the dye loading and compound diluent buffer was HBSS (#14025 Life Technologies) supplemented with 20 mM HEPES (final concentration) and the concentration of 5-HT used in the assay was 2 μM. Offline transformation of concentration response data was done using a 4 parameter logistic fit using a Bristol-Myers Squibb proprietary informatics software suite.

[6] = Plasma and brain concentrations after dosing; type: in vivo, mouse; settings: for Kp: mouse, brain/plasma
Description: Occupancy determinations were made either on completion of behavioral testing or in satellite groups of animals dosed in parallel with behavioral testing. At specified time points after dosing, the forebrain (for occupancy), the remaining hindbrain (for brain drug exposure) and plasma were collected, frozen in chilled isopentane and stored at -80°C until assayed. […] Homogenized tissue aliquots were frozen immediately and stored at -80°C. […] Non-specific binding was defined by adding 25 μM MLA to wells containing tissues from vehicle-treated animals. […] The filters were washed with ice-cold assay buffer, punched into a clear plate and 200 μl scintillation fluid added per well. Bound radioactivity was measured using a Wallac Microbeta liquid scintillation counter. Specific binding was calculated by subtracting the value of the non-specific binding from that of the total binding in each sample. The percent occupancy was calculated as [1 –(specific binding in drug treated mice/specific binding in vehicle treated mice)] x 100.
In brief, 50 μL of the plasma sample was extracted by protein precipitation with 150 μL acetonitrile containing an internal standard and 5 μL of supernatant injected into the LC-MS/MS system. Analytes were separated by reversed phase chromatography and detection of each analyte was achieved through selected reaction monitoring mode of mass spectrometry.

[7] = biological target: HEK293/Human α7 nAChR (Homo sapiens, UniProt P36544); experiment: Ca2+ flux (FLIPR) agonist assay; type: cell-based
Sequence of HEK293/Human α7 nAChR (P36544 23-502): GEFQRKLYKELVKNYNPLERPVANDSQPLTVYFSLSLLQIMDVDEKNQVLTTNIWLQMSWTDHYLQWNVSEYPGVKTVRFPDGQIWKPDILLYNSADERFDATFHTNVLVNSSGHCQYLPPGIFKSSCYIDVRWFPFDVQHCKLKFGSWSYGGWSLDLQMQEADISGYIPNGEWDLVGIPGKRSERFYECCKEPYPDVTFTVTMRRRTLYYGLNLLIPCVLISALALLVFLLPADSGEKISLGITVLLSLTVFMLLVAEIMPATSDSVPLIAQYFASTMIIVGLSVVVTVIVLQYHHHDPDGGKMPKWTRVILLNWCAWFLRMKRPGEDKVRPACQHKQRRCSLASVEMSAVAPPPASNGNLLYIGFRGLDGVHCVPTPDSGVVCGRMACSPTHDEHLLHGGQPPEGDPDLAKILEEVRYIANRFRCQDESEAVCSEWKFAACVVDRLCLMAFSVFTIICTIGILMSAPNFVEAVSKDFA
Sequence of HEK293/Human α7 nAChR (Q7Z5B4 29-369 partner): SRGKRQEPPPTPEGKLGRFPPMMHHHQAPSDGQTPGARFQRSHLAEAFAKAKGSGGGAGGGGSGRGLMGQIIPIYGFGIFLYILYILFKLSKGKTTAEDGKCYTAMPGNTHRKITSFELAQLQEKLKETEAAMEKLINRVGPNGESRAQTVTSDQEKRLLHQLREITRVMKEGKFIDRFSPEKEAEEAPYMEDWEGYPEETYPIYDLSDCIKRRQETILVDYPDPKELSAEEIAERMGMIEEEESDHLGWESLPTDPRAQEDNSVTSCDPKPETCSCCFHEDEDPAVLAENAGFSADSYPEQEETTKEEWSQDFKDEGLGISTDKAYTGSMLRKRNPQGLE
Description: Functional activity was examined using Ca^2+-sensitive, dye-based, microfluorometric assays read on the FLIPR Tetra plate reader platform (Molecular Devices, CA, USA). Cells were plated in 384-well black, clear-bottomed Greiner poly-D-lysine coated plates at a density of ~25 K cells/well and incubated at 29°C for 48 h. Prior to assay, media contents were removed and cells incubated in assay buffer containing 5μM final Fluo-4 dye for 90 min. […] Test compounds were solubilized in DMSO and serially diluted in NUNC 384-well plates prior to addition of assay buffer (5.3 mM KCl + 140 mM NaCl + 20 mM Hepes + 25 mM CaCl2 + 1 mM MgCl2 + 10 μM atropine final concentration). Compounds diluted in assay buffer were added to the assay plate by the FLIPR and read for approximately 2 min. […] Offline transformation of concentration response data was done using a 4 parameter logistic fit using a Bristol-Myers Squibb proprietary informatics software suite.

[8] = biological target: T3, α7 nAChR (Mus musculus, UniProt P49582); experiment: Ex vivo α7 nAChR occupancy ([3H]-A-585539); type: in vivo; settings: mouse, sc, mice
T3 construct: One forebrain hemisphere from each animal was thawed and homogenized in assay buffer; from tissue; host or cells: forebrain homogenate of dosed male C57Bl/6 mice
T3 sequence (P49582 23-502): as the sequence (Q05941 23-502) above, with A402T counted along it
Description: Occupancy determinations were made either on completion of behavioral testing or in satellite groups of animals dosed in parallel with behavioral testing. At specified time points after dosing, the forebrain (for occupancy), the remaining hindbrain (for brain drug exposure) and plasma were collected, frozen in chilled isopentane and stored at -80°C until assayed. […] Homogenized tissue aliquots were frozen immediately and stored at -80°C. […] The filters were washed with ice-cold assay buffer, punched into a clear plate and 200 μl scintillation fluid added per well. Bound radioactivity was measured using a Wallac Microbeta liquid scintillation counter. Specific binding was calculated by subtracting the value of the non-specific binding from that of the total binding in each sample. The percent occupancy was calculated as [1 –(specific binding in drug treated mice/specific binding in vehicle treated mice)] x 100.

[9] = NS-6740 (10 mg/kg sc) 10 min prior to BMS-933043 (0.3 mg/kg sc)

CCN1C[C@]2(COC(=O)c3ccccc3N3C(=O)C[C@H](C)C3=O)CC[C@H](OC)[C@@]34[C@@H]5C[C@H]6[C@H](OC)[C@@H]5[C@](O)(C[C@@H]6OC)[C@@](O)([C@@H](OC)[C@H]23)[C@@H]14 [MLA, methyllycaconitine]
brain/plasma [1]: 0.06–0.09

O=C(c1ccc(-c2cccc(C(F)(F)F)c2)o1)N1CCN2CCC1CC2 [NS-6740, 4-[[5-[3-(trifluoromethyl)phenyl]-2-furanyl]carbonyl]-1,4-diazabicyclo[3.2.2]nonane]
24 h recognition memory after NS-6740 alone ([2]; 3 or 10 mg/kg sc): did not show improved 24 h recognition memory | effect of pretreatment on BMS-933043 (0.3 mg/kg, sc) improved discrimination index ([2]; NS-6740 10 mg/kg sc): abolished the improved discrimination index | % Discrimination Index (DI) Testing (day 3) Mean ± SEM [2, 9]: 3.83 ± 4.25% | % Discrimination Index (DI) Training (day 2) Mean ± SEM [2, 9]: -4.82 ± 7.09% | % Discrimination Index (DI) Testing (day 3) Mean ± SEM ([2]; NS-6740 (10 mg/kg sc)/Vehicle): -1.02 ± 4.40% | % Discrimination Index (DI) Training (day 2) Mean ± SEM ([2]; NS-6740 (10 mg/kg sc)/Vehicle): 6.43 ± 5.54% | Ki ([3]; displacement of [3H]-A-585539, read-out: Rat Brain α7 nAChR Mean ± SD Ki): 0.00285 ± 0.00044 µM | Ki ([3]; individual determinations, read-out: Rat Brain α7 nAChR Ki (individual)): 0.00245 µM and 0.00278 µM and 0.00333 µM | IC50 ([4]; IC50 for inhibition of BMS-933043 (10 μM) net charge crossing the membrane): 0.255 µM | IC50 ([4]; IC50 for inhibition of BMS-933043 (10 μM) peak current response): 0.283 ± 0.033 µM | IC50 ([5]; FLIPR, individual determinations, read-out: Human 5-HT3A IC50 values (individual)): 6.21 µM and 5.69 µM and 5.32 µM and 5.91 µM and 2.39 µM and 3.11 µM and 4.7 µM and 5.68 µM and 4.43 µM | IC50 ([5]; HEK293/Human 5-HT3A Mean ± SD IC50, Ca2+ flux (FLIPR), antagonism of 2 μM 5-HT): 4.83 µM | Brain Mean ± SD ([6]; NS-6740 0.3 mg/kg sc, mice): 316 ± 43 nM | Plasma Mean ± SD ([6]; NS-6740 0.3 mg/kg sc, mice): 37 ± 2 nM | Brain Mean ± SD ([6]; NS-6740 1 mg/kg sc, mice): 1,125 ± 66 nM | Plasma Mean ± SD ([6]; NS-6740 1 mg/kg sc, mice): 130 ± 7 nM | Brain Mean ± SD ([6]; NS-6740 3 mg/kg sc, mice): 3,998 ± 273 nM | Plasma Mean ± SD ([6]; NS-6740 3 mg/kg sc, mice): 544 ± 214 nM | Brain Mean ± SD ([6]; NS-6740 10 mg/kg sc, mice): 17,725 ± 1,928 nM | Plasma Mean ± SD ([6]; NS-6740 10 mg/kg sc, mice): 2,083 ± 426 nM | Kp ([6]; NS-6740 0.3 mg/kg sc, mice, read-out: Brain/Plasma Ratio): 8.54 | Kp ([6]; NS-6740 1 mg/kg sc, mice, read-out: Brain/Plasma Ratio): 8.65 | Kp ([6]; NS-6740 3 mg/kg sc, mice, read-out: Brain/Plasma Ratio): 7.35 | Kp ([6]; NS-6740 10 mg/kg sc, mice, read-out: Brain/Plasma Ratio): 8.51 | Kp ([6]; NS-6740, mice sc, read-out: average brain/plasma ratio): > 8 | α7 nAChR agonist activity [7]: no α7 nAChR agonist activity | receptor occupancy at 3 mg/kg ([8]; read-out: ex vivo α7 nAChR occupancy, NS-6740 3 mg/kg sc): 89% | receptor occupancy at 10 mg/kg ([8]; read-out: ex vivo α7 nAChR occupancy, NS-6740 10 mg/kg sc): 98%
